Test results reported in US9192670B2, “Regulation of amyloid beta molecular composition for the treatment of alzheimer's disease” (Ramot at Tel-Aviv University Ltd., priority 2011, dated 2015).
“Also recorded” adds a separate entry of the source. Like-named read-outs stand apart in the source and are kept apart here.

Experiments:
hippocampal slices = test: Extracellular Aβ40/Aβ42 by sandwich ELISA in acute hippocampal slices stimulated by single spikes or spike bursts; assay type: cell-based, rat
CA3-CA1 connections [1] = test: fEPSP/EPSC recordings in CA3-CA1 connections of hippocampal slices; assay type: cell-based, rat
[2] = system: APP/PS1 hippocampal slices; test: Extracellular Aβ40/Aβ42 by ELISA in APP/PS1 hippocampal slices, single spikes or spike bursts; assay type: cell-based, mouse
CA3-CA1 connections [3] = test: fEPSP recordings in CA3-CA1 connections of APP/PS1 hippocampal slices; assay type: cell-based, mouse
APP = test: Western blot of APP processing in APP/PS1 hippocampal slices; assay type: cell-based, mouse; conditions: APP/PS1 slices before and after pre-treatment with baclofen
Description: Immunoblot Analysis. At the end of each stimulation, hippocampal slices were homogenized and prepared for the detection of full-length APP, soluble APP and APP-C terminal fragment (APP-CTF) by western blotting as described previously^18. Full length APP and soluble APP was probed using anti-APP 22C11 monoclonal antibody (Millipore, Temecula, Calif., 1:2000). In APP/PS1 slices, APP-bCTF was detected using 82E1 monoclonal antibody (IBL, Japan, 1:200). Both 22C11 and 82E1 probing were followed by goat anti-mouse HRP conjugated secondary antibody (Jackson ImmunoResearch, West Grove, Pa., 1:5000). APP-aCTF was detected using rabbit anti-APP-CTF antibody (Millipore, Temecula, Calif., 1:10,000) followed by goat anti-rabbit HRP conjugated secondary antibody (Jackson ImmunoResearch, West Grove, Pa., 1:5000). Following detection, blots were stripped with Restore™ Western Blot Stripping Buffer (Pierce, Thermo Scientific, Rockford, Ill.) and then re-probed with mouse anti-actin (SIGMA, Israel, 1:10,000) and HRP-conjugated goat anti-mouse (1:5000) antibodies as a loading control protein. All proteins were visualized by SuperSignal® West Pico Chemiluminescent (Pierce; Thermo Scientific, Rockford, Ill.). Densitometry was performed using the ImageJ Analysis software, and each band was normalized to its actin signal.

CFP-PS1-YFP = assay type: cell-based, rat
human hippocampal slices = test: Extracellular Aβ40/Aβ42 by ELISA in human hippocampal slices, single spikes or spike bursts; assay type: cell-based; conditions: RS-baclofen 20 μM
Experimental: (§1) Human slices were subjected to 1 hour stimulations by single spikes or spike bursts as described for experiments in rodents herein above (each burst contains 5 APs, inter-spike-interval 10 ms, inter-burst interval 5 s) in ACSF in the presence of 50 μM AP-5 for blocking postsynaptic excitatory NMDA receptors. Following stimulation, [Aβ40]o and [Aβ42]o in ACSF were measured by sandwich ELISA. Extracellularly recorded field EPSPs (fEPSPs) were used to assess short-term synaptic plasticity.

CA3-CA1 connections [4] = test: fEPSP recordings in CA3-CA1 connections of human hippocampal slices; assay type: cell-based; conditions: RS-baclofen 20 μM
Experimental: as §1

human cortical slices [5] = test: Extracellular Aβ40/Aβ42 by ELISA in human cortical slices, single spikes or spike bursts; assay type: cell-based; conditions: RS-baclofen 20 μM
Experimental: as §1

human cortical slices [6] = test: fEPSP recordings in human cortical slices; assay type: cell-based; conditions: RS-baclofen 20 μM
Experimental: as §1

rat hippocampal cultures = assay type: cell-based
[7] = in vivo; cited from earlier work
[8] = baclofen 1 μM, 3 h, APP/PS1 slices
[9] = 20 mM gabazine, 1 h at 37° C., blocking GABAA receptors

## [Cd] [cadmium]
Hippocampal slices
  Aβ40/42 pattern dependency: abolished
  Aβ40/42 ratio: decreased
  Aβ40 burst/single ratio: reduced
  [Aβ40]o reduced by, during single spikes: 67%
  [Aβ40]o reduced by, during spike bursts: 77%
  [Aβ42]o at either stimulation pattern: did not alter
  burst/single ratio of Aβ42: did not affect
CA3-CA1 connections [1]
  synaptic transmission: completely blocked

## NCC(CC(=O)O)c1ccc(Cl)cc1 (stereo not drawn) [baclofen]
Hippocampal slices
  Aβ40/42 during periods of high-frequency burst firing: boosting
  Aβ40 pattern dependency (burst/single ratio): rescued
  Aβ42 burst/single ratio: unaltered
  [Aβ40]o during spike bursts: increasing; also recorded: increased
  [Aβ42]o during either single spikes or bursts: did not affect
  difference between the Aβ40/42 ratio associated with single and burst patterns: restored
  pattern dependency of the Aβ40/42 ratio: restored
Hippocampal slices; 3 h pre-incubation, CGP54626 10 μM, baclofen 1 μM in ↑Ca/Mg-slices
  pattern dependency of Aβ40: rescued
CA3-CA1 connections [1]
  basal synaptic transmission: rescued
  burst/single ratio of fEPSP charge transfer per spike (QfEPSP): rescued
  short-term facilitation (relative slopes of fEPSPs within the burst): rescued
  slope of linear fit of input-output relationship (stimulation amplitude vs slope of fEPSP): 0.77±0.02
CA3-CA1 connections [1]; 3 h pre-incubation, CGP54626 10 μM in ACSF, baclofen 1 μM in ↑Ca/Mg-slices, recordings in normal ACSF
  short-term synaptic facilitation during the burst: rescued
CA3-CA1 connections [1]; pretreatment of hippocampal slices with baclofen for 3 h before electrical stimulation
  total synaptic strength: did not alter
[2]
  Aβ40/42 ratio associated with burst patterns: increased
  [Aβ40]o during single spikes: did not affect
  [Aβ42]o during either single spikes or bursts: did not affect
  burst/single ratio of Aβ42: did not affect
  pattern dependency of the Aβ40/42 ratio: rescued
  reduction in the Aβ40 burst/single ratio: rescued
[2]; [8]
  [Aβ40]o during bursts: increased
CA3-CA1 connections [3]
  burst/single ratio of fEPSP charge transfer per spike (QfEPSP): reversed
  slope of linear fit of input-output relationship (stimulation amplitude vs slope of fEPSP): 0.95±0.06
CA3-CA1 connections [3]; [8]
  reduction in short-term synaptic facilitation by burst in APP/PS1 mice: reversed
APP
  burst/single ratio of FL-APP: no significant differences
  burst/single ratio of βCTF: no significant differences
CFP-PS1-YFP
  FYFP/FCFP (FR) on changing stimulation pattern from single spikes to spike bursts: not affected
Human hippocampal slices
  Aβ40/42 ratio during burst pattern of stimulation: increased
  Aβ42 pattern dependency: without affecting
  [Aβ42]o during either single- or burst stimulation pattern: uniformly inhibited
  burst pattern sensitivity of Aβ40: increased
  pattern dependency of the Aβ40/42: induced
Human hippocampal slices; stronger during single spikes
  [Aβ40]o: inhibited
CA3-CA1 connections [4]
  short-term synaptic facilitation during the burst: increased
Human cortical slices [5]
  Aβ42 pattern dependency: no effect
  burst pattern sensitivity of Aβ40: increased
  pattern dependency of the Aβ40/42: induced
Human cortical slices [6]
  short-term synaptic depression: reduced

## ω-conotoxin GVIA [ω-CgTx]
Hippocampal slices
  Aβ40/42 during periods of high-frequency burst firing: boosting
  Aβ40 pattern dependency (burst/single ratio): rescued
  Aβ42 burst/single ratio: unaltered
  [Aβ40]o during single spikes: decreased
  [Aβ40]o during spike bursts: increasing
  pattern dependency of the Aβ40/42 ratio: restored
CA3-CA1 connections [1]
  basal synaptic transmission: rescued
  burst/single ratio of fEPSP charge transfer per spike (QfEPSP): rescued
  short-term facilitation (relative slopes of fEPSPs within the burst): rescued
  slope of linear fit of input-output relationship (stimulation amplitude vs slope of fEPSP): 0.82±0.03

## NC1=N[C@H](O)[C@H]2[C@H]3O[C@]4(O)O[C@@H]([C@@H](O)[C@@]2(N1)[C@@H]4O)[C@]3(O)CO [tetrodotoxin]
Rat hippocampal cultures
  [Aβ40]o reduced by: 34%
  [Aβ42]o reduced by: 31%
CFP-PS1-YFP
  CFP-PS1-YFP FRET efficiency: did not change
  FYFP/FCFP (FR): not affected
[7]
  elimination rate of total Aβ: lack of TTX effect

## CC(=O)OCOC(=O)CN(CCOCCOCCN(CC(=O)OCOC(C)=O)CC(=O)OCOC(C)=O)CC(=O)OCOC(C)=O [EGTA-AM]
Hippocampal slices
  Aβ40/42 pattern dependency: abolished
  Aβ40/42 ratio associated with burst patterns: decreased
  Aβ40 burst/single ratio: reduced
  [Aβ40]o during spike bursts: reduced
  [Aβ42]o during either single spikes or bursts: did not affect
  burst/single ratio of Aβ42: did not affect
CA3-CA1 connections [1]
  EPSCs evoked by single spikes reduced by: 20%
  burst/single ratio of EPSC charge transfer per spike (QEPSC): lower
  synaptic facilitation of EPSCs reduced by: 70%

## OC[C@H]1O[C@@H](n2cnc3c(NC4CCCC4)nc(Cl)nc32)[C@H](O)[C@@H]1O [CCPA, 2-Chloro-N-cyclopentyladenosine]
Hippocampal slices
  Aβ40/42 during periods of high-frequency burst firing: boosting
  Aβ40 pattern dependency (burst/single ratio): rescued
  Aβ42 burst/single ratio: unaltered
  [Aβ40]o during single spikes: decreased
  [Aβ40]o during spike bursts: increasing
  pattern dependency of the Aβ40/42 ratio: restored
CA3-CA1 connections [1]
  basal synaptic transmission: rescued
  burst/single ratio of fEPSP charge transfer per spike (QfEPSP): rescued
  short-term facilitation (relative slopes of fEPSPs within the burst): rescued
  slope of linear fit of input-output relationship (stimulation amplitude vs slope of fEPSP): 0.49±0.03

## C[C@H](NC[C@H](O)CP(=O)(O)CC1CCCCC1)c1ccc(Cl)c(Cl)c1 [CGP54626]
Hippocampal slices
  [Aβ40]o during single spikes: did not affect
  [Aβ40]o during spike bursts: reduced
  [Aβ42]o during either single spikes or bursts: did not affect
  difference between the Aβ40/42 ratio associated with single and burst patterns: abolished
  pattern dependency of Aβ40: reduced
  pattern dependency of the Aβ40/42 ratio: reduced
CA3-CA1 connections [1]
  burst/single ratio of fEPSP charge transfer per spike (QfEPSP): reduced
  short-term synaptic facilitation during the burst: reduced
  slope of linear fit of input-output relationship (stimulation amplitude vs slope of fEPSP): 1.13±0.06

## COc1ccc(-c2ccc(=N)n(CCCC(=O)O)n2)cc1 [gabazine]
Rat hippocampal cultures; [9]
  [Aβ40]o increased by: 93.5%
  [Aβ42]o increased by: 103%

## C[C@@H](NC(=O)c1cc(C(=O)N[C@@H](Cc2ccccc2)[C@H](O)CNC2CC2)cc(N(C)S(C)(=O)=O)c1)c1ccccc1 [BACE1 inhibitor IV]
Hippocampal slices
  [Aβ40]o in pretreated slices: negligible
  [Aβ42]o in pretreated slices: negligible
